# How the values were obtained:
# [1] = system: ZR-75-1 human mammary cancer cells; experiment: MTT test, proliferation of ZR-75-1; assay type: cell-based; settings: Homo sapiens, 72 h, control = 100%, read-out: level of proliferation; for activity at 100 µM: ZR-75-1, 10^-4 M; for activity at 1 µM: ZR-75-1, 10^-6 M; for activity at 0.01 µM: ZR-75-1, 10^-8 M
# Method: (§1) The cells that were cultured came from the ATCC (American Type Culture Collection).
# (§2) The cellular lines are kept in culture in a monolayer at 37° C. in closed culture dishes (Nunc. Gibco BRL, Life Technologies, Belgium) containing the minimum essential medium (MEM, Gibco) supplemented with 5% of Foetal Calf Serum, (FCS, Gibco), 0.6 mg/ml of glutamine (Gibco) and a mixture of 200 IU/mi of penicillin (Gibco), 200 μg/ml of streptomycin (Gibco) and 0.1 mg/ml of gentamycin (Gibco). The foetal calf serum is decomplemented for 1 hour at 56° C.
# (§3) This test is based on the mitochondrial reduction by living metabolically active cells of the MTT (3-(4,5-dimethylthiazol-2-yl)-2,5-diphenyltetrazolium bromide) of yellowish colour into a blue coloured product, formazan. The quantity of formazan obtained is directly proportional to the number of living cells. After incubation of the cells for 24 hours in microplates with 96 flat bottomed wells, the culture medium is replaced by 100 μl of fresh culture medium containing the drug to be tested.
# (§4) The microplates are then incubated for 3 hours at 37° C. and centrifuged for 10 minutes at 400 g (GPR centrifuge, Beckman). The MTT solution is replaced by 100 μl of dimethylsulphoxide (Merck). The microplates are agitated (Vari-Shaker, Dynatech) for 10 minutes.
# (§5) In the microplates, the control cells like the treated cells were incubated in a medium without the compounds to be tested for 24 hours. The control cells are incubated in a medium without a drug throughout the whole experiment, while the treated cells are incubated in different media. These media contain the molecule to be tested at various concentrations: 10^-8 M, 10^-6 M and 10^-4 M. All the tests are carried out in 6 duplicates.
# (§6) The statistical comparisons are carried out according to the Fisher Test:
# (§7) The mean optical density measured for each experimental condition is expressed as a percentage in relation to the laid down control condition being equal to 100%.
# [2] = system: T-47D human mammary cancer cells; experiment: MTT test, proliferation of T-47D; assay type: cell-based; settings: Homo sapiens, T47D, T-47D, 72 h, control = 100%, read-out: level of proliferation; for activity at 100 µM: 10^-4 M; for activity at 1 µM: 10^-6 M; for activity at 0.01 µM: 10^-8 M
# Method: as §1, §2, §3, §4, §5, §6, §7
# [3] = system: human mammary tumoral lineage T-47D; experiment: Clonogenic test (soft agar), growth of cellular colonies; assay type: cell-based; settings: T-47D; for activity at 0.1 µM / activity at 0.01 µM / activity at 0.001 µM / activity at 0.0001 µM: Homo sapiens, T47D, 504 h, read-out: mean number of cellular colonies in relation to control; for activity at 0.1 µM: 10^-7 M; for activity at 0.1 µM / activity at 0.01 µM / activity at 0.001 µM / activity at 0.0001 µM / mean number of cellular colonies in relation to control: 21 days, control = 100%; for effect on growth of cellular colonies (in words): soft agar
# From the text: The human tumour stem cells are the clonogenic cells which are the origin of the neoplasic cells which constitute a given tumour. These tumour stem cells are responsible for the recidivism process observable after surgical resection of the primary tumours and are also responsible for the formation of metastases. […] At the level of a tumour or of a tumoral cellular lineage, these clonogenic stem cells distinguish themselves from other clonogenic cells of the tumour or of the neoplasic cellular lineage being considered, by the fact that they preserve their ability to proliferate in the absence of any solid support.
# This technique is suitable for the culturing in vitro of most of the tumours and tumoral cellular lineages of various histological types. In the context of this test, the neoplastic cells are cultured on a semi-solid culture medium "soft agar" made up of a mixture of agar and agarose. On this selective support, only tumoral stem cells survive and proliferate. […] The morphological characteristics and the growth of the cellular colonies are also a function of the histological type of the tumours being considered.
# These culture conditions are also called "anchorage-independent" conditions.
# The base medium "MEM 25 MM HEPES" (Minimum Essential Medium, Life Technologies, Belgium) contains Eagle salts but no L-glutamine. This medium is well suited to the growth of a range of varied diploid cells or primary mammal cells. To this medium is then added:
# The tumoral cells are maintained in culture in 25 cm^2 falcon dishes (Life Technologies, Belgium). They are then trypsinised and individualised. Their rate of viability is determined by coloration with trypan blue (Sigma, Belgium). It must be greater than 90%. In the case where this condition is kept to, a cellular suspension at the desired concentration is prepared in a solution of agar at 0. 3%. The cells are then seeded between two layers of agar (Sigma, Belgium) and in 35 mm Petri dishes (Life Technologies, Belgium). The base layer is made up of a 0.5% solution of agar and the top layer is made up of a 0.3% solution of agar. The cupules are then positioned and held in an incubator at 37° C. and 5% of CO2. […] After treatment, the cupules are kept in the incubator for 21 days. It is advisable to examine, during the course of the experiment, the appearance and the increase of the cellular colonies. If after 10 days, no colony appears or is developing, the experiment must be repeated. In the contrary case, on the 21st day, 100 μl of an MTT solution (3-(4,5-dimethylthiazol-2-yl)-2,5 diphenyl tetrazolium bromide; Sigma, Belgium) dissolved in the RPMI culture medium (Roswell park Memorial Institute, Life Technologies, Belgium), at the concentration of 1 mg/ml are deposited on the top layer of the group of cupules. The cells are kept in contact with this solution for a minimum of 3 hours at 37° C.
# Using an inverted microscope at low magnification, the number of clones whose surface area is greater thar. 100 μm^2 is determined for the group of cupules representing all the different experimental conditions. Then, for each of these experimental conditions, the mean number of cellular colonies±the standard error on the mean (ESM) is calculated.
# The mean number of cellular colonies determined for each experimental condition is expressed as a percentage in relation to the control condition made equal to 100%.
# [4] = system: ERE-βGlob-Luc, MELN lineage (MCF-7); experiment: Anti-oestrogenic effect, MELN lineage activated by estradiol; assay type: cell-based, human
# From the text: (§8) Certain properties of the retinoids have been determined using more developed cellular models. These models consist of cellular lineages transfected in a stable fashion by recombinant plasmids which place the expression of the gene of the luciferase under the control of different nuclear response elements. […] The tests carried out in duplicate are described below for each of these models.
# MCF-7 cells express RARα,γ and RXRα. The transfection of MCF-7 cells by an oestrogen-dependent gene (ERE-βGlob-Luc) has permitted the establishment of the MELN cellular lineage, used to determine the anti-oestrogenic activity of the retinoids. These cells contain the gene of the luciferase under the transcriptional control of the promoter of the βGlobine and of the response element ERE isolated from the gene of chicken vitelogenine A2. The experiments are carried out with MELN cells activated by 10^-9 M estradiol. The level of base activity of the MELN cells is obtained with the anti-oestrogen 1 μM 4-OH-tamoxifen (hydroxytamoxifen).
# The effect of the products tested on the cells activated by 10^-9 M estradiol is expressed as a percentage, the level of base activity being deducted.
# [5] = system: A549 human pulmonary cancer cells; experiment: MTT test, proliferation of A549; assay type: cell-based; settings: Homo sapiens, 72 h, control = 100%, read-out: level of proliferation
# [6] = system: A-427 human pulmonary cancer cells; experiment: MTT test, proliferation of A-427; settings: Homo sapiens, A-427, 72 h, read-out: level of proliferation
# [7] = system: AP-1, MTLN lineage (MCF-7); experiment: Anti-AP-1 effect, MTLN lineage activated by TPA; assay type: cell-based, human
# Method: as §8
# The anti-factor AP-1 transrepressor effect of retinoids is determined using the MTLN lineage, coming from MCF-7 cells transfected in a stable fashion by a vector p(TRE)3 -tk-Luc which places the expression of the gene of luciferase under the control of […]. TPA activates the AP-1 complex formed from proteins of the family of nuclear proto-oncogenes (c-Jun and c-Fos). […] The experiments are made with the MTLN cells activated by 10^-7 M TPA.
# The effect of the compounds on the MTLN cells activated by 10^-7 M TPA is expressed as a percentage. […] The inhibitive properties of the products are calculated after deduction of the base activity of the cells. The percentages reported correspond to a range of inhibitions determined from several experiments.
structure (smiles),measurement,setting,value
"CC1=C(/C=C/C(C)=C/C=C/C(C)=C/C(=O)Nc2ccc(O)cc2)C(C)(C)CCC1 [CB05764, reference compound]",activity at 100 µM,[1],0.6%
same,activity at 1 µM,[1],81.9%
same,activity at 0.01 µM,[1],97.3%
same,activity at 100 µM,[2],0%
same,activity at 1 µM,[2],66.4%
same,activity at 0.01 µM,[2],82.5%
same,activity at 0.1 µM,[3],18.8%
same,activity at 0.01 µM,[3]; 10^-8 M,33.6%
same,activity at 0.001 µM,[3]; 10^-9 M,83.3%
same,activity at 0.0001 µM,[3]; 10^-10 M,80.3%
same,effect on growth of cellular colonies (in words),[3],strongly active at concentration 10^-7 M loses its significant inhibiting activity beyond the concentration of 10^-9 M
C/C(=C/c1ccc2c(c1)C(C)(C)CCC2(C)C)c1cc(C(=O)O)no1 [CB73069],inhibition,"[4]; Homo sapiens, MCF7, 10^-6 M, cells activated by 10^-9 M estradiol",17 to 21%
C/C(=C/c1cc2c(cc1C)C(C)(C)CCC2(C)C)c1ccc(-c2nnn[nH]2)cc1 [CB61692],activity at 100 µM,[1],0%
same,activity at 1 µM,[1],89.5%
same,activity at 0.01 µM,[1],93.2%
same,activity at 100 µM,[2],0%
same,activity at 1 µM,[2],93.8%
same,activity at 0.01 µM,[2],106%
same,activity at 100 µM,"[5]; A549, 10^-4 M",0%
same,activity at 1 µM,"[5]; A549, 10^-6 M",98.2%
same,activity at 0.01 µM,"[5]; A549, 10^-8 M",106%
same,activity at 0.01 µM,[3]; 10^-8 M,55.7 ± 2.6%
same,activity at 0.001 µM,[3]; 10^-9 M,41.5 ± 5.7%
same,activity at 0.0001 µM,[3]; 10^-10 M,90.3 ± 4.7%
same,activity at 0.01 µM,[6],105%
same,activity at 1 µM,[6],107%
same,activity at 100 µM,[6],0.6%
"CC/C(=C(\c1ccccc1)c1ccc(OCCN(C)C)cc1)c1ccccc1 [CB58707, tamoxifen, reference compound]",activity at 0.1 µM,[3],31.3%
same,activity at 0.01 µM,[3]; 10^-8 M,46.9%
same,activity at 0.001 µM,[3]; 10^-9 M,35.5%
same,activity at 0.0001 µM,[3]; 10^-10 M,56.7%
same,effect on growth of cellular colonies (in words),[3],significant inhibition in the growth of these colonies but its activity is not dose dependent
"CCCCCCCOc1cc2c(cc1/C(C)=C/c1ccc(C(=O)O)cc1)C(C)(C)CCS2(=O)=O [Ro 41-5253, reference compound]",anti-AP-1 effect (in words),[7]; TPA-activated MTLN cells,does not allow the inhibition induced by TTNPB to be totally lifted
same,anti-oestrogenic effect (in words),[4]; estradiol-activated MELN cells,raises the inhibitor effect of Am580 and also of TTNPB
Cc1cc2c(cc1/C=C1/CCc3cc(-c4nnn[nH]4)ccc31)C(C)(C)CCC2(C)C [CB02981],mean number of cellular colonies in relation to control,"[3]; 10^-8 M, 0.01 µM",48.8 ± 5.3%
same,mean number of cellular colonies in relation to control,"[3]; 10^-9 M, 0.001 µM",67.6 ± 8.9%
same,mean number of cellular colonies in relation to control,"[3]; 10^-10 M, 0.0001 µM",80.1 ± 13.2%
"CC1(C)CCC(C)(C)c2cc(C(=O)Nc3ccc(C(=O)O)cc3)ccc21 [Am580, 4-[(5,6,7,8-tetrahydro-5,5,8,8-tetramethyl-2-naphthalenyl)carboxamido]benzoic acid, reference compound]",inhibition at 0.1 µM,"[7]; Homo sapiens, MCF7, 10^-7 M, cells activated by 10^-7 M TPA, range of several experiments, read-out: anti-AP-1 effect, inhibition",41 to 48%
same,inhibition at 0.01 µM,"[7]; Homo sapiens, MCF7, 10^-8 M, cells activated by 10^-7 M TPA, range of several experiments, read-out: anti-AP-1 effect, inhibition",40 to 46%
same,inhibition at 0.01 µM,"[4]; Homo sapiens, MCF7, 10^-8 M, cells activated by 10^-9 M estradiol, read-out: anti-oestrogenic effect, inhibition",36 to 51%
same,"anti-oestrogenic effect, inhibition (of the order of)","[4]; MELN, estradiol 10^-9 M",~40%
Cc1cc2c(cc1/C=C1\CCc3cc(C(=O)O)ccc31)C(C)(C)CCC2(C)C [CB40341],mean number of cellular colonies in relation to control,"[3]; 10^-8 M, 0.01 µM",65.6 ± 9.5%
same,mean number of cellular colonies in relation to control,"[3]; 10^-9 M, 0.001 µM",90.8 ± 0.8%
same,mean number of cellular colonies in relation to control,"[3]; 10^-10 M, 0.0001 µM",99.1 ± 9.7%
